# Test results taken from US20100298244A1, “COMPOSITION FOR THE PREVENTION AND THE TREATMENT OF HELICOBACTER PYLORI INFECTION” (NATIONAL TAIWAN UNIVERSITY, priority 2009, published 2010).
# Tested on: 20 Helicobacter pylori strains
# Assay: MIC by agar dilution method
# Assay type: cell-based
smiles,measurement,setting,value
"CC(=O)N[C@H]1[C@H]([C@H](O)[C@H](O)CO)OC(O)(C(=O)O)C[C@@H]1O (stereo partly shown) [Sialic acid, N-Acetylneuraminic acid]",MIC Range,"20 H. pylori strains (10 resistant to metronidazole and clarithromycin, 10 sensitive)",>4000 µg/mL
same,MIC,"Helicobacter pylori, 20 H. pylori strains, read-out: MIC For 50% of strains",> 4000 µg/mL
same,MIC90,"Helicobacter pylori, 20 H. pylori strains, read-out: MIC For 90% of strains (MIC90)",> 4000 µg/mL
same,inhibitory activity against Helicobacter pylori,alone,did not show any inhibitory activity
